The target of the assay is T1, Protein mono-ADP-ribosyltransferase TIPARP (Homo sapiens, UniProt Q7Z3E1).
T1 sequence (Q7Z3E1 whole entry): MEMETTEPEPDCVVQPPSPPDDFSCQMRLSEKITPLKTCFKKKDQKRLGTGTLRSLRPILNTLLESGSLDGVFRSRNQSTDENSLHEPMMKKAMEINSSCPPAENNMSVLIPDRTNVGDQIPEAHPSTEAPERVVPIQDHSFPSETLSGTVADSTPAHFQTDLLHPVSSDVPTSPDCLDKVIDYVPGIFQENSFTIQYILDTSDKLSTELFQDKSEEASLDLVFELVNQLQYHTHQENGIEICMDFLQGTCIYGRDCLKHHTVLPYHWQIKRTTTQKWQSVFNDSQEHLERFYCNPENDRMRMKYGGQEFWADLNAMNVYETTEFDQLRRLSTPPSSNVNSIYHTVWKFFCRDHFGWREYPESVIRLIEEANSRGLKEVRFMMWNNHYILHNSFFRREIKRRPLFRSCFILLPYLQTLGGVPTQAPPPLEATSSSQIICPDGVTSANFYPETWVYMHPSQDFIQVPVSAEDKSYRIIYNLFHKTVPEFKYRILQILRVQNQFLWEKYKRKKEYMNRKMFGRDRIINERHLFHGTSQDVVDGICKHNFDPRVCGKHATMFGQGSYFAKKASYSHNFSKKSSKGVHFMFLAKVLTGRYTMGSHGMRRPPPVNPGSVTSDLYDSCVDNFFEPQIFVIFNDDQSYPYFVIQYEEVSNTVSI
As to the kind of experiment: Enzymatic Assay for Inhibition of PARP7: Displacement of Probe A, a biotinylated probe binding to the TIPARP active site, was measured using a time-resolved fluorescence energy transfer (TR-FRET) assay. 20 nL of a dose response curve of each test compound was spotted in black 384-well polystyrene proxiplates (Perkin Elmer) using a Mosquito (TTP Labtech). Reactions were performed in a 8 μL volume by adding 6 μL of TIPARP and Probe A in assay buffer (20 mM HEPES pH=8, 100 mM NaCl, 0.1% bovine serum albumin, 2 mM DTT and 0.002% Tween20), incubating with test compound at 25° C. for 30 min, then adding 2 μL of ULight-anti 6×His and LANCE Eu-W1024 labeled streptavidin (Perkin Elmer). The final concentrations of TIPARP and Probe A were 6 nM and 2 nM, respectively. The final concentration of ULight-anti 6xHis and LANCE Eu-W1024 labeled streptavidin were 4 nM and 0.25 nM, respectively. Reactions were incubated at 25° C. for an additional 30 min, then read on an Envision platereader equipped with a LANCE/DELFIA top mirror (Perkin Elmer) using excitation of 320 nm and emission of 615 nm and […] with a 90 μs delay. The ratio of the 665/615 nm emission were calculated for each well to determine the amount of complex of TIPARP and Probe A in each well. […] The Hill Coefficient is normally allowed to float but may also be fixed at 1 in a 3-parameter fit. Y is the % inhibition and x is the compound concentration.
One may read the IC50 as the concentration needed to halve the response being measured. Regarding `N#Cc1ccc(N2CCN(C(=O)CC3COCCN3c3cn[nH]c(=O)c3C(F)(F)F)CC2)nc1` (stereo not drawn), the IC50 is less than 0.1 µM.
Under `N#Cc1ccc(N2CCN(C(=O)[C@H]3C[C@H](OC[C@@H]4CCCN4c4cn[nH]c(=O)c4C(F)(F)F)C3)CC2)nc1` stands less than 0.1 µM; under `C[C@@H](COCCC(=O)N1CCC(Nc2ncc(C(F)(F)F)s2)C1)Nc1cn[nH]c(=O)c1C(F)(F)F` (stereo partly drawn), less than 0.1 µM.
To `O=C(CCOC[C@H](Nc1cn[nH]c(=O)c1C(F)(F)F)C1CCNCC1)N1CCN(c2ncc(C(F)(F)F)cn2)CC1` belongs less than 0.1 µM; to `O=C(COC[C@@H]1CCCN1c1cn[nH]c(=O)c1C(F)(F)F)N[C@H]1CC[C@@H](Nc2ccccn2)CC1`, 0.1 to 1 µM; to `N#Cc1ccc(N2CCN(C(=O)CCOCCOC3CN(c4cn[nH]c(=O)c4C(F)(F)F)C3)CC2)nc1`, greater than 1 µM.
To `O=c1[nH]ncc(N2Cc3cccc(O)c3C2)c1C(F)(F)F` belongs less than 0.1 µM; to `O=C(CCOC[C@@H]1CCCN1c1cn[nH]c(=O)c1C(F)(F)F)N[C@H]1CC[C@H](Nc2ccccn2)CC1`, 0.1 to 1 µM.

The record behind these values is ChEMBL document CHEMBL5727538, “Pyridazinones as PARP7 inhibitors” (2020).
